Laboratory results as given in patent US20260159604A1, “USES OF NON-SMALL CELL LUNG CANCER TARGET ARID1A AND INHIBITOR THEREOF IN PREPARATION OF DRUG FOR TREATING LUNG CANCER” (THE FIRST AFFILIATED HOSPITAL OF BENGBU MEDICAL COLLEGE, priority 2021, published 2026).

Experiments:
[1] = tested on: KP and KPAfl/fl tumor-derived organoids; test: Drug sensitivity of BET inhibitors on tumor-derived organoids; assay type: cell-based, mouse; details: for number of organoids with increasing drug concentration: different drug concentrations
Protocol: Firstly, lung tumor cells of KP and KPAfl/fl mice were taken for in vitro organoid culture and expansion, and drug sensitivity experiments of five widely used BET inhibitors were conducted on tumor-derived organoids (as shown in FIG. 7 panel A).

[2] = tested on: ARID1A-mutant ovarian cancers; details: reported studies; cited from earlier work
[3] = tested on: tumors with ARID1A knockout; test: KP and KPAfl/fl tumor organoids xenotransplanted subcutaneously into C57 mice; assay type: in vivo, mouse; details: subcutaneous organoid xenotransplant in C57 mice, volumes measured every 3 days
Protocol: During the experiment, tumor volumes were measured every 3 days.

[4] = tested on: ARID1A-deficient lung cancer cells; test: Sensitivity to BETi small molecules in transgenic model mice (KP and KPAfl/fl groups); assay type: in vivo, mouse
Protocol: Finally, the sensitivity of BETi small molecules to ARID1A-deficient cells was tested on transgenic model mice (KP and KPAfl/fl groups) (FIG. 7 panel D).

[5] = tested on: ARID1A-deficient lung cancers; test: Intervention in glycolysis in AAV9-CMV-Cre induced KP and KPAfl/fl mouse lung cancer models; assay type: in vivo; details: KPAfl/fl mice, AAV9-CMV-Cre induction
Text: In Example 4 of the present invention, the biological mechanism of ARID1A deletion promoting lung cancer progression by increasing glycolysis levels was described. In this example, one or more strategies were used to intervene in glycolysis levels, and whether the method(s) could inhibit the progression of ARID1A-deficient lung cancers was observed. In one embodiment, the present invention used a clinical drug 2-DG to inhibit glucose metabolism levels, including glycolysis levels of tumor cells. In another embodiment, the present invention used lentivirus-mediated CRISPR/Cas9 to interfere with the expression of Pgam1 gene (pSECC-sgPgaml group), wherein the nucleotide sequences of the sgRNA were as shown in SEQ ID NO: 4 and SEQ ID NO: 5. In another embodiment, the present invention used lentivirus-mediated CRISPR/Cas9 to interfere with the expression of Pkm gene (pSECC-sgPkm group), wherein the nucleotide sequences of the […] were as shown in SEQ ID NO: 6 and SEQ ID NO: 7.
Firstly, 4-week-old KP and KPAfl/fl mouse systems were established. Secondly, AAV9-CMV-Cre virus induction was performed on mice. At the same time, lentivirus-mediated Cas9 and sgRNA were administered respectively to target a key gene Pgam1 or Pkm in glycolysis for intervention, with 2-DG drug treatment as another experimental group. […]

Compound: Cc1sc2c(c1C)C(c1ccc(Cl)cc1)=N[C@@H](CC(=O)Nc1ccc(O)cc1)c1nnc(C)n1-2 [OTX015, Birabresib]
- number of organoids with increasing drug concentration ([1]; 7th day): the number of organoids decreased with the increase of drug concentration

Compound: CC(=O)N1c2ccc(-c3ccc(C(=O)O)cc3)cc2[C@H](Nc2ccc(Cl)cc2)C[C@@H]1C [Bet726]
- number of organoids with increasing drug concentration ([1]; 7th day): the number of organoids decreased with the increase of drug concentration

Compound: Cc1sc2c(c1C)C(c1ccc(Cl)cc1)=N[C@@H](CC(=O)OC(C)(C)C)c1nnc(C)n1-2 [JQ1]
- inhibitory effects on ARID1A-mutant ovarian cancers [2]: inhibitory effects on ARID1A-mutant ovarian cancers
- sensitivity by comparing tumor volumes and weights [3]: more sensitive
- slowing of progression of ARID1A-deficient lung cancers (FIG. 7 legend) ([4]; FIG. 7 summary): more prominent inhibitory effect
- sensitivity by comparing the number and area of tumors ([4]; transgenic KP and KPAfl/fl mice): sensitive
- survival ability of ARID1A-deficient versus ARID1A wild-type tumor organoids [1]: greater damage to the survival ability of ARID1A-deficient tumor organoids than ARID1A wild-type organoids
- number of organoids with increasing drug concentration ([1]; 7th day): the number of organoids decreased with the increase of drug concentration
- formation of tumor-derived organoids, KPAfl/fl versus KP ([1]; concentrations of 10 μm and 50 μm, 7th day): selectively impaired the formation of KPAfl/fl tumor-derived organoids
- sensitivity of ARID1A-deficient lung adenocarcinoma cells to BETi compounds ([1]; summary statement, compared with other BETi): more sensitive

Compound: O=CC[C@@H](O)[C@H](O)[C@H](O)CO [2-DG, 2-deoxy-D-glucose]
- inhibition of tumor progression caused by the ARID1A deletion [5]: could to some extent inhibit tumor progression

Compound: COc1cc2c(cc1-c1c(C)noc1C)ncc1[nH]c(=O)n([C@H](C)c3ccccn3)c12 [Bet151]
- number of organoids with increasing drug concentration ([1]; 7th day): the number of organoids decreased with the increase of drug concentration
